Consider 4 molecules from patent publication US20150157642A1, “COSMETIC METHOD FOR CHANGING THE APPEARANCE OF EYES” (priority 2011, published 2015).

In this assay the test system is eyelids. Nature of the assay: topical application to the eyelids, eyelid retraction / eye-widening effect. To be noted: topically applied, alone or in combination. The assay is classed as in vivo. From the text:
Topical treatments to which the current application is directed include ointments, creams, and solutions that contain one or more of the compounds travoprost, unoprostone, latanoprost, and bimatoprost, alone or in combination, and/or one or more chemically-related compounds and may also include pure forms of various additional types of prostaglandin, synthetic prostaglandin, and synthetic prostaglandin anologues. These ointments and solutions are topically applied to eyelids in order to treat ptosis and/or to improve facial appearance. The ointments and solution may include, in addition to the above-mentioned active ingredients, stabilizers, buffering compounds, salts, carriers, viscosity enhancers, colorants, emollients, emulsifiers, bactericidal and germicidal agents, preservatives, and other ingredients that improve shelf life, application, consistency, and compatibility with topical application, among other things. […] Either pure prostaglandin, synthetic prostaglandin, or synthetic prostaglandin analogues may be rubbed into the eyelid tissues or a relatively concentrated solution of prostaglandin in any of various organic solvents, including ethanol, or ethanol-water mixtures, can be applied to produce the effect. Prostaglandin, synthetic prostaglandin, or synthetic prostaglandin analogs may be additionally included in various eye shadows and other cosmetic products that are routinely applied to eyelids in order to produce the eye-widening cosmetic effect, as well as in many different mixtures, suspensions, solutions, powders, ointments, creams, and other substances.
For the molecule `CCCCCCCC(=O)CC[C@@H]1[C@@H](C/C=C\CCCC(=O)OC(C)C)[C@@H](O)C[C@H]1O` [unoprostone, isopropyl (Z)-7-[(1R,2R,3R,5S)-3,5-dihydroxy-2-(3-oxodecyl)cyclopentyl]hept-5-enoic acid], the “eyelid retraction (ameliorating ptosis and/or improving facial appearance)” value is “cause the eyelids to retract more completely”. For `CC(C)OC(=O)CCCC=CCC1C(O)CC(O)C1C=CC(O)COc1cccc(C(F)(F)F)c1` (stereo not shown) [travoprost, propan-2-yl 7-[3,5-dihydroxy-2-[3-hydroxy-4-[3-(trifluoromethyl)phenoxy]-but-1-enyl]-cyclopentyl]hept-5-enoate] the value was “cause the eyelids to retract more completely”; for `CC(C)OC(=O)CCC/C=C\C[C@@H]1[C@@H](CC[C@@H](O)CCc2ccccc2)[C@H](O)C[C@@H]1O` [latanoprost, isopropyl (Z)-7-[(1R,2R,3R,5S)-3,5-dihydroxy-2-[(3R)3-hydroxy-5-phenylpentyl]-cyclopentyl]hept-5-enoate], “cause the eyelids to retract more completely”. Take `CCNC(=O)CCCC=CCC1C(O)CC(O)C1C=CC(O)CCc1ccccc1` (stereo not shown) [bimatoprost, 7-[3,5-dihydroxy-2-(3-hydroxy-5-phenyl-pent-1-enyl)-cyclopentyl]-N-ethyl-hept-5-enamide]: the “eyelid retraction (ameliorating ptosis and/or improving facial appearance)” value was “cause the eyelids to retract more completely”.
